Key:
endogenous MAGL = target: T1, endogenous MAGL (Homo sapiens, UniProt Q99685); test: Labeling of endogenous MAGL in live cells, gel-based ABPP with TCO-TAMRA; format: cell-based; conditions: human brain vascular pericytes, probe 1 h, 2 μM TCO-TAMRA 30 min
T1 sequence (Q99685 1-303): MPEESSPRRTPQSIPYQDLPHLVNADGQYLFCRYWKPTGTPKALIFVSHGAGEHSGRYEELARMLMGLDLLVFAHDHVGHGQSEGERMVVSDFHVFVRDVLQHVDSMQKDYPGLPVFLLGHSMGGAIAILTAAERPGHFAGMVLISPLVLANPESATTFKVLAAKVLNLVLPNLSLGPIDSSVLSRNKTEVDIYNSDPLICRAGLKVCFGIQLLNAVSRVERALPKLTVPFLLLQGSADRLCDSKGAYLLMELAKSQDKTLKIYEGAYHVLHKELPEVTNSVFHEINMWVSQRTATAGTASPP
Protocol: Cell culture and probe treatment. Human brain vascular pericytes were cultured in Dulbecco's Modified Eagle Medium/Nutrient Mixture F-12 (DMEM/F-12) GlutaMAX media supplemented with 5% heat-inactivated fetal bovine serum (HI FBS), 1× pericyte growth supplement (PGS), and 1× penicillin-streptomycin at 37° C. with 5% CO2 in a humidified environment. Probe treatment was performed in duplicates. Cells were plated in 6-well plates and cultured overnight in growth media. Live cells were then treated with 300 nM KML29 as a competitor compound (or DMSO as a control) at 37° C. for 1 h. Cells were subsequently treated with probe 9 (0.3 nM-3.2 μM) at 37° C. for 1 h (cells pre-treated with KML29 were treated with 32 nM of probe 9), after which the cells were washed with fresh growth media. The media were then placed with fresh media containing 2 μM of TCO-TAMRA, and the cells were incubated at 37° C. for 30 min. To quench the reaction, the media were replaced with PBS containing 100 μM tetrazine amine, and the cells were washed with cold PBS and harvested with a scrapper. The suspensions were centrifuged at 10,000×g for 1 min at 37° C., and the cell pellets were lysed in PBS containing 0.25% sodium dodecyl sulfate (SDS) with sonication. The protein concentration was measured with a bicinchoninic acid (BCA) assay kit (Thermo Scientific) and normalized. In-gel fluorescence and data analysis. The proteomes were analyzed with 1.0 mm thick 4-12% bis-tris 15-well protein gels in 2-(N-morpholino)ethanesulfonic acid (MES) buffer. The gels were scanned with a Typhoon FLA 9500 Biomolecular Imager (GE Healthcare) with the TAMRA channel with 532 nm excitation and a 575 nm long pass emission filter. To measure the total protein loading, the gels were treated with ClearPage Instant Blue (CBS Scientific) overnight, and after brief destaining with water, scanned with an Odyssey Imager (Li-COR) at the 700 nm channel. The in-gel fluorescence images were processed with ImageJ software (v1.47, NIH), and the intensities were quantified with Image Studio (v5.2, Li-COR) with background subtraction. The coomassie images were processed and quantified with the Image Studio software with background subtraction. For analysis of the cellular potency, the in-gel fluorescence intensities of the two MAGL bands were averaged, normalized with the total coomassie intensity of the corresponding sample, and fitted with a dose-response equation with Prism v7.02 (GraphPad). […] The media were then placed with fresh media containing 2 μM of TCO-TAMRA, and the cells were incubated at 37° C. for 30 min. […] The protein concentration was measured with a bicinchoninic acid (BCA) assay kit (Thermo Scientific) and normalized. In-gel fluorescence and data analysis. […]

human MAGL enzyme = target: T2, human MAGL enzyme (Homo sapiens, UniProt Q99685); test: MAGL in vitro activity assay (7-HCA substrate, fluorescence); format: biochemical; conditions: human MAGL pre-treated 30 min at room temperature, 7-HCA substrate 1 h; read-out: IC50, inhibition of MAGL activity in vitro
T2 sequence (Q99685 1-303): T1 sequence (Q99685 1-303)
Protocol: MAGL in vitro activity assay. The MAGL in vitro activity assay was performed based on a reported protocol. Briefly, human MAGL enzyme was pre-treated with compounds at room temperature for 30 min, and subsequently incubated with 7-hydroxycoumarinyl arachidonate (7-HCA) as a substrate at room temperature for 1 h. The fluorescence signals were measured on an Envision plate reader (excitation 355 nm, emission 460 nm).

[1] = Stopped-flow kinetic analysis of MAGL tetrazines with eq-5-hydroxy-trans-cyclooctene in MeOH at 25° C.; conditions: for kobs: 0.04 mM tetrazine, 0.40 mM trans-cyclooctene, MeOH; for kobs / krel: 25° C.; for krel: relative to 12, MeOH
Protocol: Solutions (3 mL) of tetrazines 100a, 100b, 100c and 12 (0.080 mM) was prepared in MeOH. Solutions (3 mL) of eq-5-hydroxy-trans-cyclooctene (0.80 mM) were prepared in MeOH. The reactions between tetrazines and trans-cyclooctene were measured under pseudo-first order conditions using SX 18MV-R stopped-flow spectrophotometer (Applied Photophysics Ltd.). Each solution of tetrazine and trans-cyclooctene were injected in equal volumes via 3 mL syringes into the stopped-flow instrument at 25° C., resulting in final concentration of 0.04 mM of tetrazines and 0.40 mM trans-cyclooctene. The reaction was monitored by the decay of absorbance associated with the tetrazines (10a and 10b at 300 nm, 10c at 280 nm). Reaction were repeated in triplicate. With Prism software, an observed rate constant, kobs, was obtained by nonlinear regression.

MAGL = test: Cellular labeling kinetics of TCO-TAMRA with MAGL probes in live human brain vascular pericytes; format: cell-based; conditions: for extent of MAGL labeling at the probe concentration used: 100c 1 μM or 12 32 nM, 37° C., 1 h
Protocol: To measure the cellular labeling kinetics of TCO-TAMRA with 100c and 12, live cells were treated with 100c (1 μM) or 12 (32 nM) at 37° C. for 1 h. […] Subsequently, the cells were washed with fresh growth media, which were placed with fresh media containing 50 nM, 200 nM, or 2 μM of TCO-TAMRA, and the cells were incubated at 37° C. for 2, 5, 10, 15, 20, 30, and 60 min. To quench the reaction, the media were replaced with PBS containing 100 μM tetrazine amine, and the cells were washed with cold PBS and harvested with a scrapper.
The suspensions were centrifuged at 10,000×g for 1 min at 37° C., and the cell pellets were lysed in PBS containing 0.25% sodium dodecyl sulfate (SDS) with sonication. The protein concentration was measured with a bicinchoninic acid (BCA) assay kit (Thermo Scientific) and normalized.
In-gel fluorescence and data analysis. Same procedure as described in Example 17 was used.

[2] = Tetrazine stability in PBS buffer in ambient light at 25° C.; format: physicochemical; conditions: PBS buffer pH 7.4, ambient light, day 0-5
Protocol: Solutions (3 mL) of tetrazine 5b, 5l and 6c (400 μM) were prepared in PBS buffer (pH 7.4) in vials and stored in ambient light at 25° C. Tetrazine concentrations were determined by recording the absorbance at 518 nm (6c) and 520 nm (5b and 5l) in cuvettes in day 0, 1, 3 and 5. A solution of 6a (50 μM) was prepared in PBS buffer (pH 7.4) in vials and stored in ambient light at room temperature. Tetrazine concentration was determined by recording the absorbance at 520 nm in cuvettes at day 0, 1, 3 and 5.

Experimental log P = format: physicochemical
[3] = Stopped-flow kinetic analysis of tetrazines with eq-5-hydroxy-trans-cyclooctene in PBS buffer at 25° C.; conditions: for k2, second order rate constant / kobs: PBS pH 7.4, 25° C.; for k2, second order rate constant: linear regression of kobs; for kobs: 0.025 mM tetrazine; for krel: relative to 5b, PBS, 25° C.
Protocol: Solutions (5 mL) of tetrazines 5b, 6c, 5l, 6a and 4f (0.050 mM) were prepared in PBS buffer (pH 7.4). Solutions (10 mL) of eq-5-hydroxy-trans-cyclooctene (0.50, 0.60, 0.70, 0.80 mM) were prepared in PBS buffer (pH 7.4). The reactions between tetrazines and trans-cyclooctene were measured under pseudo-first order conditions using SX 18MV-R stopped-flow spectrophotometer (Applied Photophysics Ltd.). Each solution of tetrazine and trans-cyclooctene were injected in equal volumes via 3 mL syringes into the stopped-flow instrument at 25° C., resulting in final concentration of 0.025 mM of tetrazines and 0.25, 0.30, 0.35, 0.40 mM trans-cyclooctene. The reaction was monitored by the decay of absorbance associated with the tetrazines (5b at 263 nm, 6c at 268 nm, 5l at 274 nm, 6a at 296 nm, 4f at 266 nm). Reaction were repeated in triplicate. With Prism software, an observed rate constant, kobs, was obtained by nonlinear regression. Second order rate constants, k2, were calculated by linear regression between kobs and final concentration of trans-cyclooctene.

[4] = Tetrazine stability in Opti-MEM media in ambient light at 25° C.; format: physicochemical; conditions: 400 μM
Protocol: Solutions (10 mL) of tetrazine 5b and 6c (400 μM) were prepared in Opti-MEM media in vials and stored in ambient light at 25° C. 2 mL of solution was extracted by 2 mL of Et2O in different time point. Tetrazine concentrations were determined by recording the absorbance of Et2O at 545 nm.

[5] = 30° C. to 400/500° C. at 5° C./min
Protocol: DSC data was obtained on a Mettler-Toledo Differential Scanning Calorimeter 3+. Samples were loaded into a goldplated high-pressure pan, held at 30° C. for 10 minutes, then a gradient of 30° C. to 400/500° C. at 5° C./min.

| SMILES | kobs [1] [s⁻¹] | krel [1] | extent of MAGL labeling at the probe concentration used (MAGL) | decomposition per day [2] [%] | logP (Experimental log P) | k2, second order rate constant [3] [M⁻¹ s⁻¹] | kobs ([3]; TCO 0.25 mM) [s⁻¹] | kobs ([3]; TCO 0.30 mM) [s⁻¹] | kobs ([3]; TCO 0.35 mM) [s⁻¹] | kobs ([3]; TCO 0.40 mM) [s⁻¹] | krel [3] | decomposition per day [4] [%] | further results |
| --- | --- | --- | --- | --- | --- | --- | --- | --- | --- | --- | --- | --- | --- |
| O=C(OC(C(F)(F)F)C(F)(F)F)N1CCC(CNS(=O)(=O)c2ccc(-c3nncnn3)cc2)CC1 [100c, 1,1,1,3,3,3-hexafluoropropan-2-yl 4-((4-(1,2,4,5-tetrazin-3-yl)phenylsulfonamido)methyl)piperidine-1-carboxylate] | 0.2011 | 162 | full labeling of MAGL | – | – | – | – | – | – | – | – | – | labeling of MAGL by gel-based ABPP (endogenous MAGL): strong labeling of MAGL; IC50 (human MAGL enzyme): 16 nM; times more reactive than 100b ([1]; stopped flow kinetics with 5-hydroxyTCO): 6.5 times; time at which labeling was complete (MAGL; 100c 1 μM 1 h, then 2 μM TCO-TAMRA, first data point): ≤ 2 min |
| COC(=O)CCc1nnc(-c2ccccc2)nn1 [5b, methyl 3-(6-phenyl-1,2,4,5-tetrazin-3-yl)propanoate] | – | – | – | 1.8 | 2.2 | 197.9 ± 13.36 | 0.57 | 0.065 | 0.075 | 0.87 | 1.0 | 6.7 | – |
| C=C(OCC)c1nnc(CCC(=O)OC)nn1 [6c, methyl 3-(6-(1-ethoxyvinyl)-1,2,4,5-tetrazin-3-yl)propanoate] | – | – | – | 3.9 | 0.89 | 833 ± 35.7 | 0.20 | 0.24 | 0.28 | 0.33 | 4.2 | 10.8 | times faster than 5b ([3]; reaction with 5-hydroxyTCO): 4.2 times |
| Cc1nnc(-c2ccc(-n3ccc(C4CCN(C(=O)OC(C(F)(F)F)C(F)(F)F)CC4)n3)cc2)nn1 [compound 12, reference compound] | 0.001244 | 1 | full labeling of MAGL | – | – | – | – | – | – | – | – | – | – |
| Cc1nnc(SCc2ccc(-c3ccccc3)cc2)nn1 [b-Tz, 3-([1,1′-biphenyl]-4-ylmethylthio)-6-methyl-1,2,4,5-tetrazine] | – | – | – | – | – | – | – | – | – | – | – | – | DSC onset temperature [5]: 170 °C; DSC transition enthalpy [5]: 900 J/g |

From patent US11767302B2, “Reagents and methods for tetrazine synthesis” (University of Delaware, priority 2020, dated 2023)
